{"source": "patent US20100074897A1", "about": "“Methods and Compositions related to HIF-1 alpha” (University of Utah Research Foundation, priority 2006, published 2010)", "molecules": {"B1": {"name": "endogenous PKD1 immunoprecipitated from 786-O cells (protein)", "chain": "MSAPPVLRPPSPLLPVAAAAAAAAAALVPGSGPGPAPFLAPVAAPVGGISFHLQIGLSREPVLLLQDSSGDYSLAHVREMACSIVDQKFPECGFYGMYDKILLFRHDPTSENILQLVKAASDIQEGDLIEVVLSASATFEDFQIRPHALFVHSYRAPAFCDHCGEMLWGLVRQGLKCEGCGLNYHKRCAFKIPNNCSGVRRRRLSNVSLTGVSTIRTSSAELSTSAPDEPLLQKSPSESFIGREKRSNSQSYIGRPIHLDKILMSKVKVPHTFVIHSYTRPTVCQYCKKLLKGLFRQGLQCKDCRFNCHKRCAPKVPNNCLGEVTINGDLLSPGAESDVVMEEGSDDNDSERNSGLMDDMEEAMVQDAEMAMAECQNDSGEMQDPDPDHEDANRTISPSTSNNIPLMRVVQSVKHTKRKSSTVMKEGWMVHYTSKDTLRKRHYWRLDSKCITLFQNDTGSRYYKEIPLSEILSLEPVKTSALIPNGANPHCFEITTANVVYYVGENVVNPSSPSPNNSVLTSGVGADVARMWEIAIQHALMPVIPKGSSVGTGTNLHRDISVSISVSNCQIQENVDISTVYQIFPDEVLGSGQFGIVYGGKHRKTGRDVAIKIIDKLRFPTKQESQLRNEVAILQNLHHPGVVNLECMFETPERVFVVMEKLHGDMLEMILSSEKGRLPEHITKFLITQILVALRHLHFKNIVHCDLKPENVLLASADPFPQVKLCDFGFARIIGEKSFRRSVVGTPAYLAPEVLRNKGYNRSLDMWSVGVIIYVSLSGTFPFNEDEDIHDQIQNAAFMYPPNPWKEISHEAIDLINNLLQVKMRKRYSVDKTLSHPWLQDYQTWLDLRELECKIGERYITHESDDLRWEKYAGEQGLQYPTHLINPSASHSDTPETEETEMKALGERVSIL"}}, "key": {"recombinant PKD1": {"target": "T1, recombinant PKD1 (Homo sapiens, UniProt Q15139)", "T1 construct": "purchased Upstate Biotechnology", "T1 sequence (Q15139 1-912)": "B1 chain", "assay": "in vitro kinase assay", "format": "biochemical", "experimental": "The procedure for the in vitro kinase assay was modified from a previous report (Storz et al, 2003). Briefly, recombinant PKD1 (Upstate Biotechnology) was used as the source of enzyme in 20 μl of kinase buffer (50 mM Tris/HCl, pH 7.4, 10 mM MgCl2, 2 mM dithiothreitol). The kinase reaction was carried out for 30 min at room temperature after addition of 10 μl of kinase substrate mixture (150 μM substrate peptide, 50 μM ATP, 10 μCi of [γ-^32P]ATP in kinase buffer). A PKD1-specific substrate (Santa Cruz Biotechnology) was employed as a positive control. […] The reactions were terminated by adding 100 μl of 0.75% H3PO4, and 30 μl of the mixed supernatant was spotted to P-81 phosphocellulose paper (Whatman) in triplicates. Papers were washed thoroughly three times with 0.75% phosphoric acid, once with acetone, dried, and radioactivity incorporated into the synthetic peptide was determined in a scintillation counter. Endogenous PKD1 was immunoprecipitated with an anti-PKD1 antibody (SC-935; Santa Cruz) from 786-O cells lysed in a buffer containing 137 mM NaCl, 20 mM Tris (pH 7.5), 1 mM EGTA, 1 mM EDTA, 10% (v/v) glycerol, 1% (v/v) Nonidet P-40, 1 mM vanadate, and protease inhibitor cocktail (Roche). The immune complexes were washed three times with TBS (50 mM Tris/HCl, pH 7.4, 150 mM NaCl) and subjected to in vitro kinase assays."}, "Sp1 [1]": {"test_system": "Sp1", "assay": "anti-Sp1 immunoprecipitation of in vitro translated products", "format": "binding, rabbit", "conditions": "for Sp1 binding: produced in wheat germ extract (modification-deficient)", "experimental": "(§1) Previously, it was shown that Myc displacement is mediated by the N-terminal HIF-1α (1-329), which competes with Myc for Sp1 binding in the MSH2 promoter (Koshiji et al, 2005). […] […] […] Of note, removal of part of the PAS-B from the C terminus (codon 299-329) destroyed Sp1 binding.\n(§2) Immunoprecipitations and Western blot was performed essentially as described previously (Huang et al., 1998; Koshiji et al., 2005). In vitro translation and immunoprecipitations are described as before (Gu et al., 2001; Koshiji et al., 2005). […]"}, "Sp1 [2]": {"test_system": "Sp1", "assay": "anti-Sp1 immunoprecipitation followed by immunoblotting in HeLa cells", "format": "cell-based", "conditions": "for Sp1 binding: expressed ectopically in HeLa cells", "experimental": "(§3) Immunoprecipitations and Western blot was performed essentially as described previously (Huang et al., 1998; Koshiji et al., 2005). In vitro translation and immunoprecipitations are described as before (Gu et al., 2001; Koshiji et al., 2005). The wheat germ extract system was purchased from Promega. λ protein phosphatase (New England Biolabs) and resveratrol (Sigma) with indicated concentrations were added to the in vitro translated products before immunoprecipitations."}, "Sp1 [3]": {"target": "T2, Sp1 (Oryctolagus cuniculus, UniProt G1SL61)", "T2 construct": "from tissue; host or cells: rabbit reticulocyte lysate (in vitro translation system)", "T2 sequence (G1SL61 1-788)": "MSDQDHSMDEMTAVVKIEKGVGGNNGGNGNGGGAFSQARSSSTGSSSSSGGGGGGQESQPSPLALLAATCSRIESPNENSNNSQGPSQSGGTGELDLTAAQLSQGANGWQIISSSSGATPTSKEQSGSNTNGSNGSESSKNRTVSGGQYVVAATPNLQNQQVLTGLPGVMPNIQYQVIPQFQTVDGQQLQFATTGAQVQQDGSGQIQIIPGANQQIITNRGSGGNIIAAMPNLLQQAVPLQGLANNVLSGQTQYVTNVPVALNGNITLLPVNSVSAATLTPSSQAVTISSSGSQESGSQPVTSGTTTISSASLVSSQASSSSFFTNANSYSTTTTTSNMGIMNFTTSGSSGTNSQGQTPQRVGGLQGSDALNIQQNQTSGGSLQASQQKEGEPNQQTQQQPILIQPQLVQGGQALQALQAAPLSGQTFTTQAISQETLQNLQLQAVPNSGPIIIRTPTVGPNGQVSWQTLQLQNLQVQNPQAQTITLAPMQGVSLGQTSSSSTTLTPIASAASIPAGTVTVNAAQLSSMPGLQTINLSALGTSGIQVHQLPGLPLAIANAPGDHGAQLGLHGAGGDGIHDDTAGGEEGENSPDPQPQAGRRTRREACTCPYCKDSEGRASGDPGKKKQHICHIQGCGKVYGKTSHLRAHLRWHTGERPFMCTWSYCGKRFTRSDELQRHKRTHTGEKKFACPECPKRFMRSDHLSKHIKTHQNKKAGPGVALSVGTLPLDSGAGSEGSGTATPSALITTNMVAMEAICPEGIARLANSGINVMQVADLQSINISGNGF", "assay": "anti-Sp1 immunoprecipitation of in vitro translated products", "format": "binding, rabbit", "conditions": "for Sp1 binding: translated in rabbit reticulocyte lysate; for competition with PAS1B for Sp1 binding: in vitro translated PAS1B, peptide 10, 100 and 1000 pmol", "experimental": "as §1, §2"}, "NBS1 [4]": {"test_system": "NBS1", "assay": "NBS1 mRNA levels by real-time PCR in HCT116 cells", "format": "cell-based, human", "experimental": "HCT116 TP53^+/+, HCT116 TP53^−/− cells (Koshiji et al., 2004), and U-2 OS were grown in McCoy's 5A medium (Invitrogen), and HeLa cells in DMEM. For hypoxic treatment, cells were incubated in a hypoxic chamber (Innova CO-48, New Brunswick Scientific) maintaining 1% O2 and 5% CO2. Recombinant adenovirus generation and infection were as previously described (Koshiji et al., 2004).\nTotal RNA extraction, reverse transcription, and quantitative PCR were performed essentially as described previously (Koshiji et al., 2005). Taqman Gene Expression Assay kits for NBS1, MRE11A, RAD50, MSH2, and ACTB were purchased from Applied Biosystems. All experiments were repeated three times in triplicates, and representative results were presented as means±standard errors."}, "CDC25A": {"test_system": "CDC25A", "assay": "CDC25A and PGK1 mRNA by real-time RT-PCR in siRNA-transfected HCT116 cells", "format": "cell-based, human", "conditions": "siRNA 24 h then hypoxia 16 h", "experimental": "Real-Time RT-PCR. Real-time RT-PCR was performed essentially as described previously (Koshiji et al. 2005). Primer and probe (Applied Biosystems) sequences were as follows: CDC25A, forward 5′-[…]-3′ (SEQ ID NO: 25), reverse 5′-[…]-3′ (SEQ ID NO: 26), probe 5′-FAM-[…]-MGB-3′ (SEQ ID NO: 27). PGK-1 (FAM-MGB probe) and ACTB (VIC-MGB probe) were detected with endogenous control reagents from Applied Biosystems. β-actin primers and probe were included into each reaction for normalization. All the experiments were repeated three times in triplicate, and representative results were presented in mean±standard error.\n(§4) RNA Interference. Transfection with siRNA duplexes and siRNA sequence information were described previously (Koshiji et al. 2005). CHK1 siRNA was described previously (Zhao et al. 2002). Luciferase siRNA was used as negative control."}, "HIF-2α": {"test_system": "HIF-2α", "assay": "Western blot after siRNA transfection of HCT116 cells", "format": "cell-based, human", "experimental": "Western Blot. Western blot analysis was carried out as described previously.\nas §4"}, "U-2 OS cells": {"test_system": "U-2 OS cells", "assay": "immunofluorescent staining of γ-H2AX foci (DNA DSBs)", "format": "cell-based", "experimental": "To ascertain the functional relevance of NBS1 repression by hypoxia, the extent of DNA damage was assessed by immunofluorescent staining of γ-H2AX foci, a most sensitive method for quantifying DNA DSBs (Rogakou et al, 1998, 1999). […] Furthermore, results also show strikingly colocalized foci of γ-H2AX and 53BP1, the latter of which is known to interact with various DNA repair proteins including γ-H2AX in response to DSBs (Schultz et al, 2000). Thus, hypoxic cells experience DNA DSBs, presumably resulting from the NBS1 repression.\nImmunofluorescence staining was performed essentially as described previously (Rogakou et al, 1999) with mouse anti-γ-H2AX antibody (Upstate) and rabbit anti-53BP1 (Novus Biologicals). Secondary antibodies were anti-mouse Alexa-546 and anti-rabbit Alexa-488 (Molecular Probes). Samples were mounted in antifade media, and were examined by fluorescent and laser-scanning confocal microscopy with a Nikon PCM 2000."}, "NBS1 [5]": {"test_system": "NBS1", "assay": "NBS1 protein levels by immunoblot in U-2 OS cells expressing PAS-B variants", "format": "cell-based", "conditions": "forced expression in U-2 OS cells", "experimental": "as §3\nU-2 OS cells were transfected with the Nucleofector system (Amaxa). Briefly, 1×10^6 cells were suspended in 100 μl pre-warmed Nucleofector Solution Kit V containing 2 μg plasmids. After electroporation the cells were transferred immediately into pre-warmed complete McCoy's 5A medium and seeded in 6-well plates. Cells were harvested 48 h after transfection."}, "[6]": {"target": "synthetic peptide including HIF-2α residues 314-331"}}, "data": [{"molecule": "Oc1ccc(C=Cc2cc(O)cc(O)c2)cc1", "note": "[resveratrol, reference compound]", "values": [{"measurement": "PKD1-mediated phosphorylation of consensus substrate peptide and HIF-2α peptide", "setting": "recombinant PKD1; recombinant PKD1 preincubated with resveratrol (100 μM) for 10 min", "result": "abrogated"}, {"measurement": "Sp1 binding of PAS2B", "setting": "Sp1 [1]; 100 μM during synthesis of PAS2B in rabbit reticulocyte lysate", "result": "established Sp1 binding"}, {"measurement": "PAS2B-Sp1 immunoprecipitated complexes", "setting": "Sp1 [2]; HeLa cells expressing PAS2B treated with 5 nM of resveratrol", "result": "yielded PAS2B-Sp1 immunoprecipitated complexes"}]}, {"molecule": "Ac-YGRKKRRQRRRGGGVWLETQGTVIYNPRN L-NH2 [HIF-2α peptide]", "values": [{"measurement": "phosphorylation of peptide substrate by recombinant PKD1", "setting": "recombinant PKD1; 150 μM substrate peptide, 30 min, room temperature", "result": "robustly phosphorylated"}]}, {"molecule": "PAS1B T322V: PAS1B with T322V mutation", "values": [{"measurement": "Sp1 binding", "setting": "Sp1 [3]", "result": "maintained PAS1B activity"}]}, {"molecule": "HIF-2α: full-length HIF-2α, a close member of the HIF-α family", "values": [{"measurement": "Sp1 binding", "setting": "Sp1 [3]", "result": "neither full-length HIF-2α nor PAS2B exhibited Sp1-binding activity"}, {"measurement": "Sp1 binding", "setting": "Sp1 [2]", "result": "no Sp1 binding was detected"}, {"measurement": "NBS1 repression", "setting": "NBS1 [4]; adenovirus infection 16 h", "result": "no inhibition"}]}, {"molecule": "5′-AACAGCATCTTTGATAGCAGT-3″ [EPAS1 siRNA]", "values": [{"measurement": "effect on hypoxic CDC25A down-regulation and PGK1 up-regulation", "setting": "CDC25A", "result": "no obvious effects"}, {"measurement": "effect on NBS1 and MSH2 downregulation and PGK1 upregulation in hypoxic cells", "setting": "NBS1 [4]; siRNA, hypoxia 1% O2 16 h", "result": "no obvious effects"}, {"measurement": "HIF-2α levels", "setting": "HIF-2α", "result": "reduced specifically"}]}, {"molecule": "PAS2B T324V: PAS2B with Thr-324 mutated to valine", "values": [{"measurement": "Sp1 binding", "setting": "Sp1 [3]", "result": "established binding"}, {"measurement": "γ-H2AX foci colocalized with 53BP1", "setting": "U-2 OS cells; U-2 OS cells transiently expressing PAS-B variants", "result": "significantly increased"}, {"measurement": "NBS1 protein levels", "setting": "NBS1 [5]", "result": "gained its ability to inhibit NBS1 protein levels"}]}, {"molecule": "PAS1B T327P: PAS1B with Thr-327 replaced by the HIF-2α residue proline", "values": [{"measurement": "Sp1 binding", "setting": "Sp1 [1]", "result": "regained binding"}, {"measurement": "competition with PAS1B for Sp1 binding", "setting": "Sp1 [3]", "result": "neither PAS2B nor the PAS1B T327P mutant was able to compete"}, {"measurement": "Sp1 binding", "setting": "Sp1 [3]", "result": "lost Sp1 binding"}]}, {"molecule": "PAS1B T322E: PAS1B mutant mimicking phosphorylation at Thr-322 with glutamic acid substitution", "values": [{"measurement": "Sp1 binding", "setting": "Sp1 [3]", "result": "lost Sp1 binding"}, {"measurement": "NBS1 protein levels", "setting": "NBS1 [5]", "result": "failed to do so"}]}, {"molecule": "CC(=O)N(O)CCCCCNC(=O)CCC(=O)N(O)CCCCCNC(=O)CCC(=O)N(O)CCCCCN", "note": "[Desferrioxamine, reference compound]", "values": [{"measurement": "intensified γ-H2AX foci", "setting": "U-2 OS cells; U-2 OS cells treated with desferrioxamine, versus hypoxia", "result": "much greater increase"}, {"measurement": "γ-H2AX foci per cell, Mean", "setting": "U-2 OS cells; U-2 OS cells, desferrioxamine conditions for 72 h", "result": 40.62, "unit": "foci per cell"}]}, {"molecule": "PAS2B: HIF-2α PAS-B (codons 195-331)", "values": [{"measurement": "Sp1 binding", "setting": "Sp1 [1]", "result": "regained binding"}, {"measurement": "competition with PAS1B for Sp1 binding", "setting": "Sp1 [3]", "result": "neither PAS2B nor the PAS1B T327P mutant was able to compete"}, {"measurement": "Sp1 binding", "setting": "Sp1 [3]", "result": "neither full-length HIF-2α nor PAS2B exhibited Sp1-binding activity"}, {"measurement": "Sp1 binding", "setting": "Sp1 [2]", "result": "no Sp1 binding was detected"}]}, {"molecule": "B1", "values": [{"measurement": "in vitro kinase assay with immunoprecipitated endogenous PKD1 and synthetic peptides", "setting": "[6]", "result": "endogenous PKD1 immunoprecipitated from 786-O cells specifically phosphorylated HIF-2α at Thr-324"}]}]}
